Article PMC9241695, “Selective Metal Chelation by a Thiosemicarbazone Derivative Interferes with Mitochondrial Respiration and Ribosome Biogenesis in Candida albicans” (Microbiology Spectrum, 2022)
Converted amounts (≈) assume the structure as drawn.

Columns and labels:
C. albicans SC5314 [1] = experiment: Minimal fungicidal concentration (MFC); type: cell-based; conditions: Candida albicans, read-out: MFC against C. albicans SC5314
[2] = system: human bronchial epithelial cell line 16HBE; experiment: Cytotoxicity testing (MTT); type: cell-based; conditions: ratio of IC50 against 16HBE to MIC80 against C. albicans SC5314
Experimental: (§1) h (for C. albicans, C. krusei, C. tropicalis, C. parapsilosis) or 48 h (for C. neoformans, A. fumigatus). The MIC was determined based on visible growth inhibition compared with the control. All experiments were performed in duplicate.
(§2) Cytotoxicity testing. The cell lines HK2 and 16HBE were used to evaluate the cytotoxicity of 19ak, 19k and 19t. Cells in DMEM containing 10% fetal bovine serum (Gibco) were seeded in 96-well tissue culture plates at a cell density of 1 × 10^4 cells/mL and incubated for 24 h to allow adhesion. The supernatant was then replaced with fresh DMEM containing various concentrations of 19ak, 19k and 19t. The plates were subsequently incubated for an additional 48 h at 37°C with 5% CO2, followed by the addition of 10 μL of MTT solution to each well and incubation at 37°C for 4 h.
(§3) The effects of the compounds on cell proliferation were detected by measuring the absorbance at 570 nm in a microplate reader (BioTek, VT, USA). Three independent experiments were conducted. […]

[3] = Cytotoxicity testing (MTT); type: cell-based, human; conditions: human, 48 h, MTT
Experimental: as §1, §2, §3

[4] = system: human renal epithelial cell line HK2; experiment: Cytotoxicity testing (MTT); type: cell-based; conditions: ratio of IC50 against HK2 to MIC80 against C. albicans SC5314
Experimental: as §1, §2, §3

C. albicans SC5314 [5] = experiment: MIC of 19ak in the presence of H2O2; type: cell-based; conditions: Candida albicans, read-out: MIC against C. albicans SC5314 (Table S3)
Experimental: Influence of oxidant or antioxidant molecules on 19ak activity. The MIC of
19ak in the presence of 1–2 mM H2O2 was measured using the broth microdilution
assay as described above. […]

C. albicans SC5314 [6] = experiment: Drug resistance study by serial passage; type: cell-based, Candida albicans; conditions: RPMI 1640 medium, 40-day period, passages at 0.5 × MIC
[7] = system: C. albicans CAF2-1, zap1Δ/Δ, zap1Δ/Δ+ pZAP1; experiment: Growth of zap1 mutant, complemented and wild-type strains under 19ak; type: cell-based, Candida albicans
Experimental: FIG 6 Effect of 19ak on ribosome biogenesis in C. albicans. (A to C) The wild strain CAF2-1, the mutant strain zap1Δ/Δ and its complemented strain zap1Δ/Δ+ pZAP1 were adjusted to 1 × 10^5 cells/mL in RPMI 1640 medium and treated with 0.25 or 0.5 μg/mL 19ak for 15 h at 30°C. Cell growth was monitored by detecting the optical density at 600 nm in a microplate reader. (A) Cells that were not treated with 19ak as a control. (B) Cells treated with 0.25 μg/mL 19ak. (C) Cells treated with 0.5 μg/mL 19ak. Each point represents the mean of three replicates. The OD600 values at the final detection point were used to analyze significant differences. (D) C. albicans zap1Δ/Δ and its complemented strain zap1Δ/Δ + pZAP1 were treated with 0.5 μg/mL 19ak for 6 h at 30°C. The transcription levels of several genes associated with ribosomal biosynthesis were determined by qPCR. The bars represent means ± SD from three independent experiments. *, P < 0.05; **, P < 0.01; ***, P < 0.001. ns, nonsignificance. (E) qPCR analysis of the expression of genes associated with iron and zinc homeostasis after TPEN treatment. C. albicans SC5314 was cultured in RPMI 1640 medium and treated with 0.05 μg/mL or 0.2 μg/mL TPEN for 6 h at 30°C for qPCR analysis.

C. albicans SC5314 [8] = experiment: CCK-8 reduction assay, mitochondrial dehydrogenase activity; type: cell-based, Candida albicans; conditions: 0.125 μg/mL to 5 μg/mL
Experimental: The Cell Counting Kit-8
(CCK-8) assay is used to measure the dehydrogenase activity in the mitochondria of C. albicans or mammalian cells. C. albicans SC5314 (5 × 10^6 cells/mL in RPMI1640 medium) were treated with different concentrations of 19ak in 96-well plates at 30°C for 12 h or 48 h. 10 μL of CCK-8 solution was added to each well. After an additional 2 h of incubation, OD450 in each well was detected with a microplate reader. […]

C. albicans SC5314 [9] = experiment: Rescue effect of exogenous metal ions on MIC of 19ak; type: cell-based; conditions: Candida albicans
Experimental: h (for C. albicans, C. krusei, C. tropicalis, C. parapsilosis) or 48 h (for C. neoformans, A. fumigatus). The MIC was determined based on visible growth inhibition compared with the control. All experiments were performed in duplicate. […]
Rescue effect of exogenous metal ions on fungal growth inhibition by 19ak.
Since the effects of thiosemicarbazone may be due to binding of intracellular metal ions, we investigated the impact of adding metal ions to the medium on the inhibitory effect of 19ak by performing antifungal susceptibility testing as described above in the presence of 50 μM, 100 μM, and 200 μM ZnSO4, FeSO4, and FeCl3. […]

Question: What does the source list for `C/C(=N\NC(=S)N(C)C)c1ccccn1` [Compound 19ak]?
Answer: MFC (C. albicans SC5314 [1]): 64 µg/mL (≈ 288 µM); Selectivity index 16HBE [2]: 55.78; IC50 at 48 h ([3]; 16HBE cells (bronchial epithelial cell line), 16HBE cells): 6.97 µg/mL (≈ 31.4 µM); IC50 at 48 h ([3]; HK2 cells (renal epithelial cell line), HK2 cells): 26.8 µg/mL (≈ 121 µM); Selectivity index HK2 [4]: 214.32; MIC (C. albicans SC5314 [5]; SC5314, +1 mM H2O2): 0.25 µg/mL; MIC (C. albicans SC5314 [5]; SC5314, +2 mM H2O2): 0.5 µg/mL; MIC (C. albicans SC5314 [5]; SC5314, without H2O2): 0.125 µg/mL; Change of MIC after repeated exposure (C. albicans SC5314 [6]): did not alter the MIC; Activity against CAF2-1, zap1Δ/Δ and complemented strain with exogenous Zn^2+ ([7]; 100 μM Zn^2+ added): lost the activities; Growth of zap1 mutant versus complemented strain ([7]; 0.25 or 0.5 μg/mL, 15 h, 30°C): more severe growth defects; Mitochondrial dehydrogenase activity of C. albicans (CCK-8, absorbance at 450 nm) (C. albicans SC5314 [8]): decreased accordingly in a dose-dependent manner; MIC (C. albicans SC5314 [9]; SC5314, + 50 μM Fe^2+ (FeSO4), read-out: MIC against C. albicans SC5314): 1 µg/mL; MIC (C. albicans SC5314 [9]; SC5314, + 50 μM Fe^3+ (FeCl3), read-out: MIC against C. albicans SC5314): 0.25 µg/mL; MIC (C. albicans SC5314 [9]; SC5314, + 50 μM Zn^2+ (ZnSO4), read-out: MIC against C. albicans SC5314): 4 µg/mL; MIC (C. albicans SC5314 [9]; SC5314, + 100 μM Fe^2+ (FeSO4), read-out: MIC against C. albicans SC5314): 1 µg/mL; MIC (C. albicans SC5314 [9]; SC5314, + 100 μM Fe^3+ (FeCl3), read-out: MIC against C. albicans SC5314): 0.25 µg/mL; MIC (C. albicans SC5314 [9]; SC5314, + 100 μM Zn^2+ (ZnSO4), read-out: MIC against C. albicans SC5314): 4 µg/mL; MIC (C. albicans SC5314 [9]; SC5314, + 200 μM Fe^2+ (FeSO4), read-out: MIC against C. albicans SC5314): 1 µg/mL; MIC (C. albicans SC5314 [9]; SC5314, + 200 μM Fe^3+ (FeCl3), read-out: MIC against C. albicans SC5314): 0.5 µg/mL; MIC (C. albicans SC5314 [9]; SC5314, + 200 μM Zn^2+ (ZnSO4), read-out: MIC against C. albicans SC5314): 4 µg/mL; MIC (C. albicans SC5314 [9]; SC5314, read-out: MIC against C. albicans SC5314): 0.125 µg/mL
